In brackets after ≈: the same amount, converted by molar mass. Where a SMILES comes first, the peptide text is derived from it. Where no end group is shown, it is not given here.
Legend:
[1] = system: C498: E. coli, wild type strain; assay type: cell-based; details: for MIC C498 (active/inactive): Table 2, class symbols
Text: (§1) The bacterial strains used were E. coli C498, E. coli C500, Escherichia coli UB1005 and its antibiotic supersusceptible derivative DC2 (22); a clinical isolate of Staphylococcus epidermidis (C621); coryneform bacterial strain Corynebacterium xerosis (C875); and E. coli ATCC 25922, Staphylococcus aureus ATCC 25923, Enterococcus faecalis ATCC 29212, Bacillus subtilis ATCC 6633 and Pseudomonas aeruginosa ATCC 27853, all from American Type Culture Collection.
(§2) Peptide antibacterial activity was assessed by the method of R. Hancock et al. (Wu & Hancock (1999), J. Biol. Chem., v. 274, pp. 29-35). Test strains of bacteria from Mueller Hinton agar (MHA) plates were inoculated into 5 ml Mueller Hinton Broth (MHB) in tubes and grown overnight at 37° C. on a shaker (180 rpm). Serial dilutions of test peptides (at 10 times the required test concentrations) were made in 0.01% acetic acid, 0.2% BSA, in polypropylene or coated glass tubes as follows: the test peptide was (a) dissolved in distilled water at 20 times the required maximum concentration (enough final volume for all tests to be performed on a given day); (b) diluted into an equal volume of 0.02% acetic acid, 0.4% BSA to give 10 times the required maximum concentration; (c) serial doubling dilutions were performed in 0.01% acetic acid, 0.2% BSA to provide serial dilutions of peptides at 10 times the required test concentrations, e.g., 640, 320, 160, . . . 2.5 μg/ml. (No deleterious effects of long-term storage of peptides in these media have been detected). Overnight bacterial cultures were diluted in MHB to give 2−7×10^5 colony forming units/ml. Bacterial suspension (100 μl) was dispensed in each well; controls without bacteria were maintained in parallel. To each well was added 11 μl of 10× test peptide and plates were incubated at 37° C. for 18-24 hours, and checked again at 40-48 hours. Plates were read visually and at 600 nm in a microplate reader (Molecular Devices).
(§3) were synthesized. The antibacterial activity of these peptides was determined against both Gram-positive bacteria ([…], Corynebacterium xerosis) and Gram-negative bacteria (various strains of E. coli). The results are shown in Table 2, along with the average hydrophobicity of each peptide, calculated as described herein.

[2] = system: C500: E. coli, antibiotic strain; assay type: cell-based; details: for MIC C500 (active/inactive): Table 2, class symbols
Text: as §1, §2, §3

[3] = system: Corynebacterium xerosis (C875); assay type: cell-based; details: for MIC C875 (active/inactive): Table 2, class symbols
Text: as §1, §2, §3
(§4) A further number of the peptides of the invention were tested for antimicrobial activity against a range of Gram-positive and Gram-negative bacteria by the assay described immediately before Example 1.

[4] = system: Staphylococcus epidermidis (C621); assay type: cell-based; details: for MIC C621 (active/inactive): Table 2, class symbols
Text: as §1, §2, §3, §4

E. coli DC2 = assay: Assay of antibacterial activity (MIC), E. coli DC2; assay type: cell-based, Escherichia coli; details: Table 3; Gram-negative
Text: as §1, §2, §4

E. coli UB1005 = assay type: cell-based, Escherichia coli; details: UB1005
Text: as §1, §2, §4

[5] = Hydrophobicity (hydropathy) from reverse-phase HPLC retention scale; assay type: physicochemical; design: key to Average Hydrophobicity of Core Sequence / Mean Core segment Hydrophobicity: arithmetic average of Table 1 hydropathy values of constituent residues; key to Hydropathy: hydropathy scale from HPLC retention times of model peptides (Table 1); details: for Average Hydrophobicity of Core Sequence: Table 2, calculated from Table 1 hydropathy values
Text: The “hydrophobicity value” of an amino acid residue means the hydrophobicity value of that residue as shown in Table 1 or as calculated by the method described herein.
The “hydrophobicity value” of an amino acid sequence or peptide means the arithmetic average of the individual hydrophobicity values of the constituent amino acid residues of the sequence.
Various hydrophobicity scales for proteins and amino acids have been described in the literature but the inventors have established the hydrophobicity scale of Table 1 based on the retention times on HPLC of a series of hydrophobic model peptides, as described in Liu and Deber (1998), Biopolymers (Peptide Science), v. 47, pp. 41-62).
The hydrophobicity value shown for each amino acid in Table 1 as “hydropathy” may be used as the hydrophobicity value for that amino acid in any peptide whose hydrophobicity value has to be calculated. The “average hydrophobicity” of a peptide containing amino acids shown in Table 1 is calculated by determining the arithmetic average of the Table 1 “hydropathy” values for the constituent amino acids of the sequence.
Peptides in accordance with the invention may also include other amino acids. For an amino acid not included in Table 1, the hydrophobicity value may be determined by the same method as described herein for obtaining the values of Table 1. For example, a peptide such as KKAAAXAAAAAXAAXAAXAAAKKKK-amide (Sequence ID No: 1) may be synthesized, where X is the amino acid whose hydrophobicity value is to be determined, and the retention time of the peptide on HPLC is determined, as described in the Examples. Similar peptides where X is Lys or Phe are also prepared and their HPLC retention times determined. The retention time, Rx, is converted to the hydropathy value H for the selected amino acid using the equation
H=(10×ΔtRx-Lys/ΔtRPhe-Lys)−5.00
where ΔtRx-Lys=retention time difference in minutes between Rx and the retention time of the most hydrophilic peptide tested (X=Lys) and where ΔtRPhe-Lys=retention time difference in minutes between the most hydrophobic peptide tested (X=Phe) and the most hydrophilic (X=Lys).
The retention time of each peptide was determined on a C4 reversed-phase column (4.6×250 mm, 300 A pore size, 10 μ particle size). Equal amounts of each peptide were injected into the column and eluted at a flow rate of 1 mL/min, utilizing a linear AB gradient (2% B/min), where buffer A was 0.1% TFA/ddH2O, and buffer B was 0.1% TFA/acetonitrile. The retention time of each peptide reported here was the average of triplicate measurements.

Rabbit RBC = assay type: cell-based
Experimental: (§5) Erythrocytes from heparinized rabbit or human blood were washed three times with phosphate-buffered saline (PBS; 5 mM phosphate buffer, 0.14 M saline, pH 7.3), and centrifuged at 1000×g for 15 min at 4° C. The erythrocytes were diluted with PBS to 4% (v/v). Dilutions of the peptides in PBS were plated in 100 μl volumes in microtitre plates (Costar 3790, polypropylene) together with 100μl of the erythrocyte suspension. PBS was used as control and 100% lysis was determined in 0.1% Triton X-100. The plates were incubated at 37° C. for 1 h and then centrifuged at 1000×g for 5 min. 100 μl aliquots of the supernatant were transferred to microtitre plates (Nunc, polystyrene), and the release of hemoglobin was monitored by measurement of the absorbance at 540 nm in a microplate reader. The results are shown in Table 6, for peptide concentrations of […]. With only one or two exceptions, little or no hemolysis was seen.

Human RBC = assay type: cell-based
Experimental: as §5

Row | Molecule | MIC C498 ([1]; C498: , wild type strain) | MIC C500 ([2]; C500: , antibiotic strain) | MIC C875 [3] | MIC C. xerosis C875 [3] | MIC C621 ([4]; C621) | MIC S. epidermidis C621 ([4]; C621) | MIC E. coli DC2 (E. coli DC2) | MIC E. coli UB1005 (E. coli UB1005) | MIC C498 (active/inactive) [1] | MIC C500 (active/inactive) [2] | MIC C875 (active/inactive) [3] | MIC C621 (active/inactive) [4] | Mean residue hydropathy of X-residue peptide ([5]; Table 1) | Hydropathy ([5]; Table 1, of the X-residue, from HPLC retention of KKAAAXAAAAAXAAWAAXAAAKKKK-amide peptides) | Average Hydrophobicity of Core Sequence [5] | Mean Core segment Hydrophobicity ([5]; Table 3) | Rabbit RBC (% lysis) 50 μM (Rabbit RBC) | Rabbit RBC (% lysis) 200 μM (Rabbit RBC) | Human RBC (% lysis) 50 μM (Human RBC) | Human RBC (% lysis) 200 μM (Human RBC)
1 | C[C@H](NC(=O)[C@H](C)NC(=O)[C@H](C)NC(=O)[C@H](Cc1c[nH]c2ccccc12)NC(=O)[C@H](C)NC(=O)[C@H](C)NC(=O)[C@H](C)NC(=O)[C@H](CCCCN)NC(=O)[C@@H](N)CCCCN)C(=O)N[C@@H](C)C(=O)N[C@@H](C)C(=O)N[C@@H](Cc1c[nH]c2ccccc12)C(=O)N[C@@H](C)C(=O)N[C@@H](C)C(=O)N[C@@H](Cc1c[nH]c2ccccc12)C(=O)N[C@@H](C)C(=O)N[C@@H](C)C(=O)N[C@@H](Cc1c[nH]c2ccccc12)C(=O)N[C@@H](C)C(=O)N[C@@H](C)C(=O)N[C@@H](C)C(=O)N[C@@H](CCCCN)C(=O)N[C@@H](CCCCN)C(=O)N[C@@H](CCCCN)C(=O)N[C@@H](CCCCN)C(N)=O [Peptide W25] (H-KKAAAWAAAAAWAAWAAWAAAKKKK-NH2; N-terminus assumed) | 6 µM (≈ 15.6 µg/mL) | 3 µM (≈ 7.79 µg/mL) | 0.2 µM (≈ 0.519 µg/mL) | <0.25 µM | 0.7 µM (≈ 1.82 µg/mL) | <0.25 µM | 8 µM (≈ 20.8 µg/mL) | 16 µM (≈ 41.6 µg/mL) | – | – | – | – | – | – | – | – | – | – | – | –
2 | CC(C)C[C@H](NC(=O)[C@H](C)NC(=O)[C@H](C)NC(=O)[C@H](C)NC(=O)[C@H](CCCCN)NC(=O)[C@@H](N)CCCCN)C(=O)N[C@@H](C)C(=O)N[C@@H](C)C(=O)N[C@@H](C)C(=O)N[C@@H](C)C(=O)N[C@@H](C)C(=O)N[C@@H](CS)C(=O)N[C@@H](C)C(=O)N[C@@H](C)C(=O)N[C@@H](Cc1c[nH]c2ccccc12)C(=O)N[C@@H](C)C(=O)N[C@@H](C)C(=O)N[C@@H](CC(C)C)C(=O)N[C@@H](C)C(=O)N[C@@H](C)C(=O)N[C@@H](C)C(=O)N[C@@H](CCCCN)C(=O)N[C@@H](CCCCN)C(=O)N[C@@H](CCCCN)C(=O)N[C@@H](CCCCN)C(N)=O [[C25]] (H-KKAAALAAAAACAAWAALAAAKKKK-NH2; N-terminus assumed) | – | – | – | 1 µM (≈ 2.37 µg/mL) | – | >32 µM | 8 µM (≈ 18.9 µg/mL) | 16 µM (≈ 37.9 µg/mL) | + | + | + | + | 0.78 | 2.49 | 1.02 | 1.02 | – | – | – | –
3 | C[C@H](NC(=O)[C@H](C)NC(=O)[C@H](C)NC(=O)[C@H](C)NC(=O)[C@H](C)NC(=O)[C@H](C)NC(=O)[C@H](C)NC(=O)[C@H](CCCCN)NC(=O)[C@@H](N)CCCCN)C(=O)N[C@@H](C)C(=O)N[C@@H](C)C(=O)N[C@@H](C)C(=O)N[C@@H](C)C(=O)N[C@@H](C)C(=O)N[C@@H](Cc1c[nH]c2ccccc12)C(=O)N[C@@H](C)C(=O)N[C@@H](C)C(=O)N[C@@H](C)C(=O)N[C@@H](C)C(=O)N[C@@H](C)C(=O)N[C@@H](C)C(=O)N[C@@H](CCCCN)C(=O)N[C@@H](CCCCN)C(=O)N[C@@H](CCCCN)C(=O)N[C@@H](CCCCN)C(N)=O [Peptide A25] (H-KKAAAAAAAAAAAAWAAAAAAKKKK-NH2; N-terminus assumed) | – | – | – | 2 µM (≈ 4.5 µg/mL) | – | >64 µM | >64 µM | >64 µM | – | – | – | – | – | – | – | – | 0 % lysis | 1 % lysis | – | –
4 | C[C@H](NC(=O)[C@H](C)NC(=O)[C@H](C)NC(=O)[C@H](CO)NC(=O)[C@H](C)NC(=O)[C@H](C)NC(=O)[C@H](C)NC(=O)[C@H](CCCCN)NC(=O)[C@@H](N)CCCCN)C(=O)N[C@@H](C)C(=O)N[C@@H](C)C(=O)N[C@@H](CO)C(=O)N[C@@H](C)C(=O)N[C@@H](C)C(=O)N[C@@H](Cc1c[nH]c2ccccc12)C(=O)N[C@@H](C)C(=O)N[C@@H](C)C(=O)N[C@@H](CO)C(=O)N[C@@H](C)C(=O)N[C@@H](C)C(=O)N[C@@H](C)C(=O)N[C@@H](CCCCN)C(=O)N[C@@H](CCCCN)C(=O)N[C@@H](CCCCN)C(=O)N[C@@H](CCCCN)C(N)=O [Peptide S25] (H-KKAAASAAAAASAAWAASAAAKKKK-NH2; N-terminus assumed) | – | – | – | >64 µM | – | >64 µM | >64 µM | >64 µM | – | – | – | – | – | – | – | – | 0 % lysis | 3 % lysis | 0 % lysis | 0 % lysis
5 | KKATALVGAASLTAWVGLASAKKKK-NH2 | – | – | – | – | – | – | – | – | + | + | + | + | – | – | 0.62 | – | – | – | – | –

From patent US20080234188A1, “Antimicrobial Peptides” (The Hospital for Sick Children, priority 2001, published 2008)
